Results published in US10758530B2, “Carboxamide derivatives useful as rsk inhibitors” (PHOENIX MOLECULAR DESIGNS, priority 2016, dated 2020).
“Also recorded” adds a separate entry of the source. Counter-ions that a name gives are not always drawn.

Tests used:
[1] = Solubility assessment (20 mg/ml solution, precipitate formation, pH strips); type: physicochemical; conditions: for Solubility, 20 mg/ml solution: dissolved in DMSO (100 mM); for pH of 20 mg/ml solution: dissolved in DMSO
Experimental: Solubility is an important property for therapeutic drug candidates. Poor solubility can lead to low bioavailability resulting in suboptimal drug delivery. It can also prevent the evaluation of test agents in animals because the concentration(s) needed to achieve the desired effect cannot be achieved to poor solubility. For solubility assessments, small molecules targeting RSK were compared. For these assessments, 100 mM solutions of the compounds dissolved in DMSO were diluted in DMEM growth media (Life Technologies) supplemented with fetal bovine serum (FBS, Life Technologies) and 100 units/ml penicillin and 100 units/mi streptomycin (Life Technologies) to make 20 mg/ml solutions. Once diluted, the solutions were vortexed and examined for the formation of precipitates. […] For Compound 26, a 100 mM solution of the compound dissolved in DMSO was diluted in phosphate buffered saline (Life Technologies) to make a 20 mg/ml solution. The stock of […] was chosen because this is the upper end of what would be required to dose mice for a range of studies including MTD, PK, PD and efficacy. The pH of this solution was determined to be 2, as previously described. […] At high concentrations some RSK inhibitors were highly soluble while others were not. Compound 0 is (R)—N-(1-benzyl-1H-pyrazol-4-yl)-9-methyl-6-oxo-6,7,8,9-tetrahydropyrido[3′,2′:4,5]pyrrolo[1,2-a]pyrazine-2-carboxamide. Compound 0 was not soluble, whereas Compounds 18, 20, 21, 25 and 26 were soluble under the same conditions (Table 5).

SUM149-PTXR [2] = test: Monolayer growth inhibition, Alamar blue assay; type: cell-based; conditions: Homo sapiens, 120 h; TNBC, BRCA mutant; 5 days, single dose
Experimental: (§2) 1×10^3 cells per well were seeded for a final volume of 200 μl per well and plates were incubated for 5 days at 37° C. in a humidified incubator with 5% CO2. Following the incubation period, cell survival was quantified by Alamar blue assay (Life Technologies). Briefly, media from each well was replaced with 100 μl of phosphate buffer saline (PBS, Life Technologies) and cells were incubated with 5% Alamar blue, which incorporates a propriety redox indicator that changes colour in response to metabolic activity, for up to 2 hours. During this period of incubation, the absorbance at 570 nm and 600 nm was measured at various time points, depending on the cell line or sample. Percent survival was calculated by comparing the absorbance ratio of the test well to the control well multiplied by 100%, as indicated in the following formula:

SUM149-PTXR [3] = test: Monolayer growth inhibition, crystal violet assay; type: cell-based; conditions: Homo sapiens, 120 h; TNBC, BRCA mutant; 5 days, single dose
[4] = tested on: All cell lines of Tables 6A/6B; test: Monolayer growth inhibition, Alamar blue assay, range over all cell lines; type: cell-based; conditions: 120 h, read-out: IC50 Values - Alamar Blue (5 Days), Range, All
Experimental: as §2

[5] = tested on: All cell lines of Tables 7A/7B; test: Monolayer growth inhibition, crystal violet assay, range over all cell lines; type: cell-based; conditions: 120 h, read-out: IC50 Values - Crystal Violet (5 Days), Range, All
[6] = tested on: phosphorylated Y-box binding protein-1 (YB-1) at serine 102 (P-YB-1 S102); test: Immunoblotting of P-YB-1 (cell signalling inhibition) in MDA-MB-231 cells
Experimental: Generation of cellular extracts: Following desired experimental conditions, breast cancer cell lines grown and treated in 6 well plates or 100 mm culture dishes (Grenier Bio-One) were placed on ice and the supernatant from each well was removed and the cells were washed in cold PBS. Following removal of PBS, cells were exposed to radioimmunoprecipitation assay (RIPA) buffer (50 mM Tris-HCl (pH 8), 150 mM NaCl, 1% NP-40, 0.5% sodium deoxycholate, 0.1% SDS; Fisher Scientific) supplemented with 1% phosphatase inhibitor (Fisher Scientific) and 1% protease inhibitor (Fisher Scientific) for 10 minutes. Samples were transferred to eppendorf tubes, vortexed and then centrifuged at 14 000 rpm for 10 minutes. Supernatants were collected as whole cell lysates. For mouse tumour tissues, each sample was place in a 35 mm culture dish with complete RIPA lysis buffer. The samples were diced in the buffer on ice with a sterile scalpel (VWR) and the buffer and tissue were transferred to an eppendorf tube. The samples were left on ice for 10 minutes with periodic vortexing every 2 to 3 minutes. The samples were then transferred to a Qiashredder (Qiagen) and centrifuged at 14 000 rpm for 2 minutes. The flow through was transferred to a new eppendorf tube and the samples were centrifuged again at 14 000 rpm for 5 minutes. Supernatants were collected as whole cell lysates.
Immunoblotting: To begin, the protein content of the lysates was measured using the Bicinchoninic Acid (BCA) Protein Assay Kit (Pierce), which included a protein standard curve generated with bovine serum albumin. […] For certain immunoblots, bands of proteins of interest were scanned and band intensity ratios were determined by densitometric analysis (ImageJ). […] To assess whether cells are actively undergoing cell death, the activity of poly ADP ribose polymerase (PARP) (1:1000 CST) was also measured using the immunoblotting method.

CIITA = CIITA mRNA expression in MDA-MB-231 and JIMT-1 cells; type: cell-based, Human; conditions: Compound 16 2 or 4 uM; Compound 18 1, 2, or 4 uM
Description: (§1) A key feature of cancer is low immunogenicity. This can occur by several mechanisms that allow the cells to escape immune recognition. […] HLA-DRA is a member of MHC-II genes and CIITA is the master regulator of MHC II transcription. Thus it was surprising that CIITA, which would be expected to regulate MHC II gene expression, was not altered by RSK inhibition. […] HLA-DRA is important for immune recognition while PD-L1 is involved in immune checkpoints.

CD274 [7] = test: CD274 (PD-L1 gene) expression in MDA-MB-231 cells; type: cell-based, Human; conditions: Compound 16 2 or 4 uM; Compound 18 1, 2, or 4 uM
Description: as §1

HLA-DRA mRNA = HLA-DRA mRNA expression in MDA-MB-231 and JIMT-1 cells; type: cell-based, Human; conditions: Compound 16 2 or 4 uM; Compound 18 1, 2, or 4 uM
Description: as §1

CD274 [8] = test: CD274 (PD-L1 gene) expression in JIMT-1 cells; type: cell-based, Human; conditions: 1-20 uM
Description: as §1

P-YB-1 = test: Pharmacodynamics: P-YB-1 signalling in MDA-MB-231 xenograft tumors (immunoblotting); conditions: n=3 treated 3 days, n=9 treated 21 days
Experimental: For mouse tumour tissues, each sample was place in a 35 mm culture dish with complete RIPA lysis buffer. The samples were diced in the buffer on ice with a sterile scalpel (VWR) and the buffer and tissue were transferred to an eppendorf tube. The samples were left on ice for 10 minutes with periodic vortexing every 2 to 3 minutes. The samples were then transferred to a Qiashredder (Qiagen) and centrifuged at 14 000 rpm for 2 minutes. The flow through was transferred to a new eppendorf tube and the samples were centrifuged again at 14 000 rpm for 5 minutes. Supernatants were collected as whole cell lysates.
Immunoblotting: To begin, the protein content of the lysates was measured using the Bicinchoninic Acid (BCA) Protein Assay Kit (Pierce), which included a protein standard curve generated with bovine serum albumin. Appropriate volumes of samples and loading buffer (50 mM Tris-HCl (pH 6.8), 2% SDS, 10% glycerol, 1% 3-mercaptoethanol, 12.5 mM EDTA, 0.02% bromophenol blue) were mixed, ensuring that equal amounts of protein were loaded. For the majority of experiments in this study, 30 μg of protein per well was loaded. […] For certain immunoblots, bands of proteins of interest were scanned and band intensity ratios were determined by densitometric analysis (ImageJ). […]
Cell signalling was evaluated by immunoblotting. […]

[9] = diluted in DMEM, hydrochloride salt
[10] = diluted in PBS, hydrochloride salt

SMILES | Solubility, 20 mg/ml solution ([1]; diluted in DMEM) | IC50 (SUM149-PTXR [2]) | IC50 (SUM149-PTXR [3]) | IC50 [4] | IC50 [5] | also measured
C[C@@H]1CNC(=O)c2cc3ccc(NC(=O)c4cnn(Cc5ccccc5)c4)cc3n21 [Compound 11, (R)-1-benzyl-N-(4-methyl-1-oxo-1,2,3,4-tetrahydropyrazino[1,2-a]indol-7-yl)-1H-pyrazole-4-carboxamide] | – | 36.4 ± 11.9 µM | 44.6 ± 3.9 µM | – | – | –
C[C@@H]1CNC(=O)c2cc3ccc(NC(=O)c4cnn(Cc5ccccc5)c4)nc3n21 [Compound 15, (R)-1-benzyl-N-(9-methyl-6-oxo-6,7,8,9-tetrahydropyrido[3′,2′:4,5]pyrrolo[1,2-a]pyrazin-2-yl)-1H-pyrazole-4-carboxamide] | – | 9.2 ± 3 µM | 8.8 ± 2.2 µM | 3.6 to 21.3 µM | 5.9 to 21 µM | –
C[C@@H]1CNC(=O)c2cc3ccc(C(=O)Nc4cnn(Cc5cccc(N)c5)c4)nc3n21 [Compound 16, (R)—N-(1-(3-aminobenzyl)-1H-pyrazol-4-yl)-9-methyl-6-oxo-6,7,8,9-tetrahydropyrido[3′,2′:4,5]pyrrolo[1,2-a]pyrazine-2-carboxamide] | – | 2.5 ± 0.4 µM | 3.5 ± 1.2 µM | 0.9 to 17.4 µM | 1.2 to 13.3 µM | Loss of P-YB-1 ([6]; 0.01-1 uM, 96 hrs): dose dependent loss of P-YB-1; mRNA expression of CIITA (CIITA): little effect; Levels of CD274 in MDA-MB-231 cells (CD274 [7]): reduced levels of CD274; HLA-DRA mRNA levels (HLA-DRA mRNA): elevated levels of HLA-DRA mRNA
C[C@@H]1CNC(=O)c2cc3ccc(C(=O)Nc4cnn(Cc5ccccc5N)c4)nc3n21 [Compound 17, (R)—N-(1-(2-aminobenzyl)-1H-pyrazol-4-yl)-9-methyl-6-oxo-6,7,8,9-tetrahydropyrido[3′,2′:4,5]pyrrolo[1,2-a]pyrazine-2-carboxamide] | – | 4.2 ± 1.5 µM | 5.2 ± 0.6 µM | 1.2 to 12.6 µM | 1 to 8.9 µM | –
C[C@@H]1CNC(=O)c2cc3ccc(NC(=O)c4cnn(Cc5cccc(N)c5)c4)nc3n21 [Compound 19, (R)-1-(3-aminobenzyl)-N-(9-methyl-6-oxo-6,7,8,9-tetrahydropyrido[3′,2′:4,5]pyrrolo[1,2-a]pyrazin-2-yl)-1H-pyrazole-4-carboxamide] | – | 14.1 ± 4.3 µM | 13 ± 1.3 µM | 10.5 to 37.3 µM | 7.4 to 34 µM | –
C[C@@H]1CNC(=O)c2cc3ccc(C(=O)Nc4ccccc4C(N)=O)nc3n21 [Compound 21, (R)—N-(2-carbamoylphenyl)-9-methyl-6-oxo-6,7,8,9-tetrahydropyrido[3′,2′:4,5]pyrrolo[1,2-a]pyrazine-2-carboxamide] | Soluble | 1.5 ± 0.8 µM | 2 ± 0.2 µM | 1.2 to 14.7 µM | 1.1 to 11.3 µM | pH of 20 mg/ml solution ([1]; diluted in DMEM): 9
C[C@@H]1CNC(=O)c2cc3ccc(C(=O)Nc4cnn(Cc5ccc(F)cc5F)c4)nc3n21 [Compound 23, (R)—N-(1-(2,4-difluorobenzyl)-1H-pyrazol-4-yl)-9-methyl-6-oxo-6,7,8,9-tetrahydropyrido[3′,2′:4,5]pyrrolo[1,2-a]pyrazine-2-carboxamide] | Precipitate | 5.1 ± 4 µM | 5 ± 2.4 µM | 1.1 to 19.8 µM | 1.1 to 15 µM | –
C[C@@H]1CNC(=O)c2cc3ccc(C(=O)Nc4cnn(Cc5ccc(N)cc5)c4)nc3n21 [Compound 25, (R)—N-(1-(4-aminobenzyl)-1H-pyrazol-4-yl)-9-methyl-6-oxo-6,7,8,9-tetrahydropyrido[3′,2′:4,5]pyrrolo[1,2-a]pyrazine-2-carboxamide hydrochloride salt] | – | 5.2 ± 4.2 µM | – | – | – | Loss of P-YB-1 ([6]; 0.01, 0.1, 1, or 10 uM, 24 hrs): dose dependent loss of P-YB-1; Solubility for systemic delivery in mice (qualitative) [1]: superior solubility; Solubility, 20 mg/ml solution [1, 9]: Soluble; pH of 20 mg/ml solution [1, 9]: 2; Tumors with reduced P-YB-1 signaling (3 and 21 days combined) (P-YB-1): 12/12
C[C@@H]1CNC(=O)c2cc3ccc(C(=O)Nc4cnn(Cc5ccc(CN)cc5)c4)nc3n21 [Compound 26, (R)—N-(1-(4-(aminomethyl)benzyl)-1H-pyrazol-4-yl)-9-methyl-6-oxo-6,7,8,9-tetrahydropyrido[3′,2′:4,5]pyrrolo[1,2-a]pyrazine-2-carboxamide hydrochloride salt] | – | 8.8 ± 2.5 µM | 6.5 ± 2.1 µM | 1.9 to 15.5 µM | 1.5 to 12.3 µM | Solubility, 20 mg/ml solution [1, 10]: Soluble; pH of 20 mg/ml solution [1, 10]: 2-9

Further lines, with some results ahead:

Solubility, 20 mg/ml solution ([1]; diluted in DMEM) | SMILES | IC50 (SUM149-PTXR [2]) | IC50 (SUM149-PTXR [3]) | IC50 [4] | IC50 [5] | also measured
not soluble; also recorded: Precipitate | C[C@@H]1CNC(=O)c2cc3ccc(C(=O)Nc4cnn(Cc5ccccc5)c4)nc3n21 [Compound 0, (R)—N-(1-benzyl-1H-pyrazol-4-yl)-9-methyl-6-oxo-6,7,8,9-tetrahydropyrido[3′,2′:4,5]pyrrolo[1,2-a]pyrazine-2-carboxamide, reference compound] | – | – | – | – | Solubility for systemic delivery in mice (qualitative) [1]: poor or nonexistent solubility
Soluble | C[C@@H]1CNC(=O)c2cc3ccc(C(=O)Nc4cnn(Cc5ccc(N)cc5)c4)nc3n21 [Compound 18, (R)—N-(1-(4-aminobenzyl)-1H-pyrazol-4-yl)-9-methyl-6-oxo-6,7,8,9-tetrahydropyrido[3′,2′:4,5]pyrrolo[1,2-a]pyrazine-2-carboxamide] | – | – | – | – | Loss of P-YB-1 ([6]; 0.01-1 uM, 96 hrs): dose dependent loss of P-YB-1; CD274 in JIMT-1 cells (CD274 [8]): inhibited CD274; pH of 20 mg/ml solution ([1]; diluted in DMEM): 9; mRNA expression of CIITA (CIITA): little effect; Levels of CD274 in MDA-MB-231 cells (CD274 [7]): reduced levels of CD274; HLA-DRA mRNA levels (HLA-DRA mRNA): elevated levels of HLA-DRA mRNA
Soluble | C[C@@H]1CNC(=O)c2cc3ccc(C(=O)Nc4cnn(CC5CCN(C)CC5)c4)nc3n21 [Compound 20, (R)-9-methyl-N-(1-((1-methylpiperidin-4-yl)methyl)-1H-pyrazol-4-yl)-6-oxo-6,7,8,9-tetrahydropyrido[3′,2′:4,5]pyrrolo[1,2-a]pyrazine-2-carboxamide] | – | – | – | – | pH of 20 mg/ml solution ([1]; diluted in DMEM): 8
Precipitate | C[C@@H]1CNC(=O)c2cc3ccc(C(=O)Nc4cnn(Cc5ccc(C(F)(F)F)cc5)c4)nc3n21 [Compound 22, (R)-9-methyl-6-oxo-N-(1-(4-(trifluoromethyl)benzyl)-1H-pyrazol-4-yl)-6,7,8,9-tetrahydropyrido[3′,2′:4,5]pyrrolo[1,2-a]pyrazine-2-carboxamide] | 7.8 ± 4.6 µM | 8 ± 1.3 µM | 4.5 to 17.1 µM | 2.6 to 14.2 µM | –
Precipitate | C[C@@H]1CNC(=O)c2c(Cl)c3ccc(C(=O)Nc4cnn(Cc5ccccc5)c4)nc3n21 [Compound 24, (R)—N-(1-benzyl-1H-pyrazol-4-yl)-5-chloro-9-methyl-6-oxo-6,7,8,9-tetrahydropyrido[3′,2′:4,5]pyrrolo[1,2-a]pyrazine-2-carboxamide] | 3.4 ± 2.1 µM | 4.5 ± 1.4 µM | 0.5 to 12.3 µM | 0.3 to 9.1 µM | –
